{"source": "patent US20130296236A1", "about": "“TREATMENT PROTOCOL OF DIABETES TYPE 2” (priority 2011, published 2013)", "tested_on": "patients with type 2 diabetes", "format": "in vivo, human", "conditions": "reduction from […]; insulin glargine on top of metformin +/- TZDs, before randomized treatment", "procedure": "The study consisted of 3 periods: (1) an up to 14-week screening period, which included an up to 2-week screening phase and a 12-week run-in phase with the introduction and titration of insulin glargine on top of metformin+/−TZDs; patients started insulin glargine once daily and titrated the insulin dose by a treat-to-target regimen to reach a glycemic target of FPG 100-80 mg/dl (5.6-4.4 mmol/L) during run-in.\nOf note, per protocol, insulin dose adjustment to maintain fasting plasma glucose at target was allowed in both treatment groups throughout the study.", "data": [{"substance": "Gly(A21)-Arg(B31)-Arg(B32)-human insulin [insulin glargine]", "values": [{"measurement": "Mean HbA1c after the 12-week run-in phase, lixisenatide group", "value": 7.56, "unit": "%"}, {"measurement": "Mean HbA1c after the 12-week run-in phase, placebo group", "value": 7.60, "unit": "%"}]}]}
